Each molecule was assayed on GM01896 cells (MPS II dermal fibroblasts) (assay: Assay 1: MPS cellular assay, MPS II (heparan sulfate disaccharide biomarkers by LC-MS)). Details: Assay 1 for MPS II, heparan sulfate disaccharide biomarkers (I2a4, I2a6, I2S0 and/or I2S6), read-out: IC50 Range.
Type: cell-based, human
Summary of the method: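 Heparan sulfate disaccharide biomarkers quantified by LC-MS after heparinase I/II/III digestion and isotopic aniline labelling, using GM01896 MPS II fibroblasts exposed to compound (at or below 30 μM, 4-21 days). Values given as IC50 by curve fitting; cell viability checked with alamar blue or ATP.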
`Cn1nc2ccc(Nc3cc(-c4ccc5cnn(C)c5c4)nc(N4CCOCC4)n3)cc2n1` [[6-(1-methyl(1H-indazol-6-yl))-2-morpholin-4-ylpyrimidin-4-yl](2-methyl(2-hydrobenzotriazol-5-yl))amine] showed an IC50 of 1 to 5 µM. For `Cn1ncc2ccc(-c3cc(Nc4ccc(-n5cccn5)cc4)nc(N4CCOCC4)n3)cc21` [[6-(1-methyl(1H-indazol-6-yl))-2-morpholin-4-ylpyrimidin-4-yl](4-pyrazolylphenyl)amine], the IC50 was < 0.5 µM.

Same assay, conditions: Homo sapiens, Fibroblast, Assay 1 for MPS II, heparan sulfate disaccharide biomarkers (I2a4, I2a6, I2S0 and/or I2S6), read-out: IC50 Range
`Cc1c(C)n(C)c2cc(Nc3cc(-c4ccc5cnn(C)c5c4)nc(N4CCOCC4)n3)ccc12` [[6-(1-methyl(1H-indazol-6-yl))-2-morpholin-4-ylpyrimidin-4-yl](1,2,3-trimethylindol-6-yl)amine] showed an IC50 of 1 to 5 µM. Molecule `Cn1cnc2cc(Nc3cc(-c4ccc5cnn(C)c5c4)nc(N4CCOCC4)n3)ccc21` [[6-(1-methyl(1H-indazol-6-yl))-2-morpholin-4-ylpyrimidin-4-yl](1-methylbenzimidazol-5-yl)amine] has an IC50 of 1 to 5 µM. `Cn1cnc2ccc(Nc3cc(-c4ccc5cnn(C)c5c4)nc(N4CCOCC4)n3)cc21` [[6-(1-methyl(1H-indazol-6-yl))-2-morpholin-4-ylpyrimidin-4-yl](1-methylbenzimidazol-6-yl)amine] showed an IC50 of 0.5 to 1 µM. For `Cn1ncc2ccc(-c3cc(Nc4ccc5c(c4)nnn5C)nc(N4CCOCC4)n3)cc21` [[6-(1-methyl(1H-indazol-6-yl))-2-morpholin-4-ylpyrimidin-4-yl](1-methylbenzotriazol-5-yl)amine], the IC50 was 1 to 5 µM. In the case of `Cn1ncc2ccc(-c3cc(Nc4ccc5nnn(C)c5c4)nc(N4CCOCC4)n3)cc21` [[6-(1-methyl(1H-indazol-6-yl))-2-morpholin-4-ylpyrimidin-4-yl](1-methylbenzotriazol-6-yl)amine], the IC50 is reported as 1 to 5 µM. Work on `Cn1ccc2cc(Nc3cc(-c4ccc5cnn(C)c5c4)nc(N4CCOCC4)n3)ccc21` [[6-(1-methyl(1H-indazol-6-yl))-2-morpholin-4-ylpyrimidin-4-yl](1-methylindol-5-yl)amine] yielded an IC50 of 1 to 5 µM. `Cn1ccc2ccc(Nc3cc(-c4ccc5cnn(C)c5c4)nc(N4CCOCC4)n3)cc21` [[6-(1-methyl(1H-indazol-6-yl))-2-morpholin-4-ylpyrimidin-4-yl](1-methylindol-6-yl)amine] was tested, and the IC50 was < 0.5 µM. Work on `Cn1cc2cc(Nc3cc(-c4ccc5cnn(C)c5c4)nc(N4CCOCC4)n3)ccc2n1` [[6-(1-methyl(1H-indazol-6-yl))-2-morpholin-4-ylpyrimidin-4-yl](2-methyl(2H-indazol-5-yl))amine] yielded an IC50 of 1 to 5 µM. `Cn1cc2ccc(Nc3cc(-c4ccc5cnn(C)c5c4)nc(N4CCOCC4)n3)cc2n1` [[6-(1-methyl(1H-indazol-6-yl))-2-morpholin-4-ylpyrimidin-4-yl](2-methyl(2H-indazol-6-yl))amine] gave an IC50 of 1 to 5 µM. In the case of `Cn1ncc2ccc(-c3cc(Nc4cccc(-c5ncco5)c4)nc(N4CCOCC4)n3)cc21` [[6-(1-methyl(1H-indazol-6-yl))-2-morpholin-4-ylpyrimidin-4-yl](3-(1,3-oxazol-2-yl)phenyl)amine], the IC50 is reported as 1 to 5 µM. In the case of `Cn1ncc2ccc(-c3cc(Nc4ccc(-n5nccn5)cc4)nc(N4CCOCC4)n3)cc21` [[6-(1-methyl(1H-indazol-6-yl))-2-morpholin-4-ylpyrimidin-4-yl](4-(1,2,3-triazol-2-yl)phenyl)amine], the IC50 is reported as < 0.5 µM. With `Cn1ncc2ccc(-c3cc(Nc4ccc(-c5ncon5)cc4)nc(N4CCOCC4)n3)cc21` [[6-(1-methyl(1H-indazol-6-yl))-2-morpholin-4-ylpyrimidin-4-yl](4-(1,2,4-oxadiazol-3-yl)phenyl)amine] the IC50 was 0.5 to 1 µM. `Cn1ncc2ccc(-c3cc(Nc4ccc(-c5nc[nH]n5)cc4)nc(N4CCOCC4)n3)cc21` [[6-(1-methyl(1H-indazol-6-yl))-2-morpholin-4-ylpyrimidin-4-yl](4-(1,2,4-triazolyl)phenyl)amine] showed an IC50 of 0.5 to 1 µM. `Cn1ncc2ccc(-c3cc(Nc4ccc(-c5ncco5)cc4)nc(N4CCOCC4)n3)cc21` [[6-(1-methyl(1H-indazol-6-yl))-2-morpholin-4-ylpyrimidin-4-yl](4-(1,3-oxazol-2-yl)phenyl)amine] gave an IC50 of 0.5 to 1 µM. In the case of `Cn1ncc2ccc(-c3cc(Nc4ccc(-c5cocn5)cc4)nc(N4CCOCC4)n3)cc21` [[6-(1-methyl(1H-indazol-6-yl))-2-morpholin-4-ylpyrimidin-4-yl](4-(1,3-oxazol-4-yl)phenyl)amine], the IC50 is reported as < 0.5 µM. For `Cn1ncc2ccc(-c3cc(Nc4ccc(C5=NCCO5)cc4)nc(N4CCOCC4)n3)cc21` [[6-(1-methyl(1H-indazol-6-yl))-2-morpholin-4-ylpyrimidin-4-yl](4-(1,3-oxazolin-2-yl)phenyl)amine], the IC50 was 1 to 5 µM. For `Cc1ccc(Nc2cc(-c3ccc4cnn(C)c4c3)nc(N3CCOCC3)n2)cc1` [[6-(1-methyl(1H-indazol-6-yl))-2-morpholin-4-ylpyrimidin-4-yl](4-methylphenyl)amine], the IC50 was 1 to 5 µM. With `Cn1ncc2ccc(-c3cc(Nc4ccc(-c5ccn[nH]5)cc4)nc(N4CCOCC4)n3)cc21` [[6-(1-methyl(1H-indazol-6-yl))-2-morpholin-4-ylpyrimidin-4-yl](4-pyrazol-5-ylphenyl)amine] the IC50 was < 0.5 µM. `Cn1ncc2ccc(-c3cc(Nc4ccc(-c5ccc[nH]5)cc4)nc(N4CCOCC4)n3)cc21` [[6-(1-methyl(1H-indazol-6-yl))-2-morpholin-4-ylpyrimidin-4-yl](4-pyrrol-2-ylphenyl)amine] gave an IC50 of 1 to 5 µM. Work on `Cn1ncc2ccc(-c3cc(Nc4ccc(-c5cc[nH]c5)cc4)nc(N4CCOCC4)n3)cc21` [[6-(1-methyl(1H-indazol-6-yl))-2-morpholin-4-ylpyrimidin-4-yl](4-pyrrol-3-ylphenyl)amine] yielded an IC50 of 0.5 to 1 µM. Molecule `Cn1ccnc1-c1ccc(Nc2cc(-c3ccc4cnn(C)c4c3)nc(N3CCOCC3)n2)cc1` [[6-(1-methyl(1H-indazol-6-yl))-2-morpholin-4-ylpyrimidin-4-yl][4-(1-methylimidazol-2-yl)phenyl]amine] has an IC50 of 0.5 to 1 µM. `Cn1cnc(-c2ccc(Nc3cc(-c4ccc5cnn(C)c5c4)nc(N4CCOCC4)n3)cc2)c1` [[6-(1-methyl(1H-indazol-6-yl))-2-morpholin-4-ylpyrimidin-4-yl][4-(1-methylimidazol-4-yl)phenyl]amine] showed an IC50 of 0.5 to 1 µM. `Cn1ccc(-c2ccc(Nc3cc(-c4ccc5cnn(C)c5c4)nc(N4CCOCC4)n3)cc2)n1` [[6-(1-methyl(1H-indazol-6-yl))-2-morpholin-4-ylpyrimidin-4-yl][4-(1-methylpyrazol-3-yl)phenyl]amine] was tested, and the IC50 was 0.5 to 1 µM. `Cc1c[nH]nc1-c1ccc(Nc2cc(-c3ccc4cnn(C)c4c3)nc(N3CCOCC3)n2)cc1` [[6-(1-methyl(1H-indazol-6-yl))-2-morpholin-4-ylpyrimidin-4-yl][4-(4-methylpyrazolyl)phenyl]amine] was tested, and the IC50 was 1 to 5 µM. In the case of `Cc1nnc(-c2ccc(Nc3cc(-c4ccc5cnn(C)c5c4)nc(N4CCOCC4)n3)cc2)[nH]1` [[6-(1-methyl(1H-indazol-6-yl))-2-morpholin-4-ylpyrimidin-4-yl][4-(5-methyl(4H-1,2,4-triazol-3-yl))phenyl]amine], the IC50 is reported as < 0.5 µM. Molecule `Cn1ncc2ccc(-c3cc(Nc4ccc(-c5nnc(C(F)(F)F)[nH]5)cc4)nc(N4CCOCC4)n3)cc21` [[6-(1-methyl(1H-indazol-6-yl))-2-morpholin-4-ylpyrimidin-4-yl]{4-[5-(trifluoromethyl)(4H-1,2,4-triazol-3-yl)]phenyl}amine] has an IC50 of 1 to 5 µM. Work on `Cn1ncc2ccc(-c3cc(Nc4ccc(-c5ncc(C(F)(F)F)[nH]5)cc4)nc(N4CCOCC4)n3)cc21` [[6-(1-methyl(1H-indazol-6-yl))-2-morpholin-4-ylpyrimidin-4-yl]{4-[5-(trifluoromethyl)imidazol-2-yl]phenyl}amine] yielded an IC50 of 0.5 to 1 µM. In the case of `Cc1ccc(Nc2cc(-c3ccc4c(c3)ncn4C)nc(N3CCOCC3)n2)cc1` [[6-(1-methylbenzimidazol-5-yl)-2-morpholin-4-ylpyrimidin-4-yl](4-methylphenyl)amine], the IC50 is reported as 0.5 to 1 µM. `Cc1ccc(Nc2cc(-c3ccc4ncn(C)c4c3)nc(N3CCOCC3)n2)cc1` [[6-(1-methylbenzimidazol-6-yl)-2-morpholin-4-ylpyrimidin-4-yl](4-methylphenyl)amine] showed an IC50 of 1 to 5 µM. Work on `Cn1cnc2ccc(-c3cc(Nc4ccccc4)nc(N4CCOCC4)n3)cc21` [[6-(1-methylbenzimidazol-6-yl)-2-morpholin-4-ylpyrimidin-4-yl]phenylamine] yielded an IC50 of 1 to 5 µM. For `Cn1nc(Cl)c2ccc(-c3cc(Nc4ccc(Cl)cc4)nc(N4CCOCC4)n3)cc21` [[6-(3-chloro-1-methyl(1H-indazol-6-yl))-2-morpholin-4-ylpyrimidin-4-yl](4-chlorophenyl)amine], the IC50 was 1 to 5 µM. For `Cn1ncc2ccc(-c3cc(Nc4ccc5ncoc5c4)nc(N4CCOCC4)n3)cc21` [benzoxazol-6-yl[6-(1-methyl(1H-indazol-6-yl))-2-morpholin-4-ylpyrimidin-4-yl]amine], the IC50 was 1 to 5 µM. `CN(C)c1ccc(Nc2cc(-c3ccc4ncn(C)c4c3)nc(N3CCOCC3)n2)cc1` [dimethyl(4-{[6-(1-methylbenzimidazol-6-yl)-2-morpholin-4-ylpyrimidin-4-yl]amino}phenyl)amine] was tested, and the IC50 was 1 to 5 µM. In the case of `CN(C)CCCc1nn(C)c2cc(-c3cc(Nc4ccc5ccn(C)c5c4)nc(N4CCOCC4)n3)ccc12` [dimethyl[3-(1-methyl-6-{6-[(1-methylindol-6-yl)amino]-2-morpholin-4-ylpyrimidin-4-yl} (1H-indazol-3-yl))propyl]amine], the IC50 is reported as < 0.5 µM. In the case of `Cn1ncc2ccc(-c3cc(Nc4ccc5cc[nH]c5c4)nc(N4CCOCC4)n3)cc21` [indol-6-yl[6-(1-methyl(1H-indazol-6-yl))-2-morpholin-4-ylpyrimidin-4-yl]amine], the IC50 is reported as 1 to 5 µM. Work on `Cn1nc(CCN2CCOCC2)c2ccc(-c3cc(Nc4ccc5cc[nH]c5c4)nc(N4CCOCC4)n3)cc21` [indol-6-yl{6-[1-methyl-3-(2-morpholin-4-ylethyl)(1H-indazol-6-yl)]-2-morpholin-4-ylpyrimidin-4-yl}amine] yielded an IC50 of 0.5 to 1 µM.

— patent US20190151312A1, “HEPARAN SULFATE BIOSYNTHESIS INHIBITORS FOR THE TREATMENT OF DISEASES” (BioMarin Pharmaceutical Inc., priority 2014, published 2019)
